# Data taken from BindingDB's records for doi:10.1021/acs.jmedchem.6b01595 (Dipartimento Di Chimica E Tecnologie Del Farmaco "Sapienza" …, 2017).
# Biological target: T1, Histone deacetylase (Plasmodium falciparum (isolate 3D7), UniProt Q7K6A1)
# T1 sequence (Q7K6A1 whole entry): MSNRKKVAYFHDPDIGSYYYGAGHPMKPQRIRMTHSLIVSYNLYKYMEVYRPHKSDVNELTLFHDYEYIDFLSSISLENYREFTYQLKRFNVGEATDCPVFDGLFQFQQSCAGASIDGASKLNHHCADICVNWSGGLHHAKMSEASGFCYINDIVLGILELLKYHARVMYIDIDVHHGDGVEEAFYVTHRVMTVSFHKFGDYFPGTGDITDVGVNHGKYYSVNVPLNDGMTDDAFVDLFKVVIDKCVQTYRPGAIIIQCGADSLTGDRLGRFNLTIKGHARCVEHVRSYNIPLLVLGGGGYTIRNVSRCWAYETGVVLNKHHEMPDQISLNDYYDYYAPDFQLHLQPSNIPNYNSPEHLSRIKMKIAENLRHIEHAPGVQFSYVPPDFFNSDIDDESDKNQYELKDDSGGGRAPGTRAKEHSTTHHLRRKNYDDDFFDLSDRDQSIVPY
# Experiment: Inhibition of HDAC1 in Plasmodium falciparum 3D7 nuclear extract using Ac-RGK(Ac)-AMC fluorogenic peptide as substrate preincubated for 1 hr followed by substrate addition measured after 10 min by fluorescence assay
smiles,measurement,value
C/C=C1\NC(=O)[C@H]2CSSCC/C=C/[C@@H](CC(=O)N[C@H](C(C)C)C(=O)N2)OC(=O)[C@H](C(C)C)NC1=O,IC50,0.9 nM
